Experimental data: patent publication US20250228983A1, “PROBES FOR CELLULAR SENESCENCE” (UNIVERSITY OF FLORIDA RESEARCH FOUNDATION, INCORPORATED, priority 2022, published 2025)

Legend:
[1] = molecular target: bovine serum albumin (BSA) (Bos taurus, UniProt P02769); test: In gel fluorescence nonspecific labeling of BSA; format: biochemical; settings: 10 μM probe, 50 μg BSA, 50 μL PBS, 37° C., 2 h; compared with NIR-BG2
Procedure: (§1) FIG. 4. Compare labeling efficiency using in gel fluorescence. 10 μM of NIR-BG2, NIR-BG3 or NIR-BG4 is incubated with 10 units of β-gal and/or 50 μg of BSA in total volume of 50 μL PBS solution were incubated at 37° C. for 2 h. Each lane was loaded with 10 μL of the reaction solution.
(§2) In certain examples, two carbamate analogues were synthesized: NIR-BG3 carrying ethyl carbamate and NIR-BG4 carrying an endocyclic carbamate. To compare these two analogues with NIR-BG2, the three probes were incubated with recombinant β-galactosidase (p-gal) and bovine serum albumin (BSA) and the labeling efficiency of these probes on P-gal and BSA was compared using gel electrophoresis.

[2] = system: CT26.WT and CT26.CL25 cells (stably transfected with LacZ); test: Fluorescent cell imaging and flow cytometry of CT26.WT and CT26.CL25 cells; format: cell-based; settings: 10 μM probe
Procedure: FIG. 5. FIG. 5A: Fluorescent cell imaging of CT26. WT and CT26.CL25 cells after incubating with 10 μM of NIR-BG2 or NIR-BG3 in serum free medium for 2 hours at 37° C. Cells were fixed, permeabilized with 0.5% Triton X-100 and stained with DAPI. Scale bar: […]. FIG. 5B: Flow cytometry and FIG. 5C quantification of fluorescence in CT26.WT and CT26.CL25 cells after incubating with 10 μM of NIR-BG2 or NIR-BG3.
NIR-BG2 and NIR-BG3 were also compared in CT26.WT and CT26.CL25 that are stably transfected with LacZ.

[3] = molecular target: recombinant β-galactosidase (β-gal) (Escherichia coli, UniProt P00722); test: In gel fluorescence labeling efficiency on recombinant β-galactosidase; format: biochemical; settings: 10 μM probe, 10 units β-gal and/or 50 μg BSA, 50 μL PBS, 37° C., 2 h; compared with NIR-BG2
Chain of recombinant β-galactosidase (β-gal) (P00722 2-1024): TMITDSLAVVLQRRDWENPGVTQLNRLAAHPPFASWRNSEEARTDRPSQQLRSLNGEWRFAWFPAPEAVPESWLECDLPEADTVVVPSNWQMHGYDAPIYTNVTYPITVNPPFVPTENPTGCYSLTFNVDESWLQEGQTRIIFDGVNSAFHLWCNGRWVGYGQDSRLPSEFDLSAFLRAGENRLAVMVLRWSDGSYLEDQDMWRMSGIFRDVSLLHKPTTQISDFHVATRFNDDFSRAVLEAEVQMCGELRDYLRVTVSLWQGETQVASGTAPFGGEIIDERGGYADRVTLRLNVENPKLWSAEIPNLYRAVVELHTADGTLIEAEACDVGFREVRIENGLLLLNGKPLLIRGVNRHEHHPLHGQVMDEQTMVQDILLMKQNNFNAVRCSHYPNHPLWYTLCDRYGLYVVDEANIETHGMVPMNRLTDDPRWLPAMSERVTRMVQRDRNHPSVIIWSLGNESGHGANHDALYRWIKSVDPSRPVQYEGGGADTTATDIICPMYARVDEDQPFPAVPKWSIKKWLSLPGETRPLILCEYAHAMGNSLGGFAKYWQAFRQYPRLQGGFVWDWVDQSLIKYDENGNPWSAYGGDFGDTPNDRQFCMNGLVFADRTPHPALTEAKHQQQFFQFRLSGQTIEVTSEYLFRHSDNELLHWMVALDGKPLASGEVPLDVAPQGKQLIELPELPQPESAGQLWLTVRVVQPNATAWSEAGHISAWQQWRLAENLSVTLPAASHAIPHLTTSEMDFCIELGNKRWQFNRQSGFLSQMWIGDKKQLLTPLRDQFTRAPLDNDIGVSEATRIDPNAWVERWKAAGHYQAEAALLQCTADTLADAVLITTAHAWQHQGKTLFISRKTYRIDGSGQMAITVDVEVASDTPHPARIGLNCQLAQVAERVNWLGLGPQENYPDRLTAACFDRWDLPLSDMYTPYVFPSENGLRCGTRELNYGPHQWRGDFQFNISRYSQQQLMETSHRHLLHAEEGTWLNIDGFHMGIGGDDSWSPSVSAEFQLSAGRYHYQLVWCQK
Procedure: as §1, §2

Chain of bovine serum albumin (BSA) (P02769 25-607): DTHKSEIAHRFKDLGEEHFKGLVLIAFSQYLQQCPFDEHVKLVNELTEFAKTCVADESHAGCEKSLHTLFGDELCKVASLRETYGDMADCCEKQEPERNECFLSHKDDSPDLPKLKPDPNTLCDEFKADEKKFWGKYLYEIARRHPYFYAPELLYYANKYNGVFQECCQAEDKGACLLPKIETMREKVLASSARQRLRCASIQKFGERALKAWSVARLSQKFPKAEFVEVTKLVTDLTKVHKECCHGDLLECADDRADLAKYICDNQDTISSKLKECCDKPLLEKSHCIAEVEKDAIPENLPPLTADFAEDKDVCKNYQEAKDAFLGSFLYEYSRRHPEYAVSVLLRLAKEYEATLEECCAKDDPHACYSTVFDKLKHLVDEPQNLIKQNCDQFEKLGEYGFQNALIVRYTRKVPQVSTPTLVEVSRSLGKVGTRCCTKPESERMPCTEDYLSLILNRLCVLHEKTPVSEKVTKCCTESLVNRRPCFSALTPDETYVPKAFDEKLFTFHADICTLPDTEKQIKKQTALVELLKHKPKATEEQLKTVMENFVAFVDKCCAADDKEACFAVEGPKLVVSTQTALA

Compound	nonspecific labeling of BSA [1]	contrast for CT26.CL25 cells over CT26.WT ([2]; serum free medium, 2 hours, 37° C.)	mean intensity compared to NIR-BG2 ([2]; FIG. 5)	background by flow cytometry ([2]; compared with NIR-BG2)	fluorescence by flow cytometry ([2]; compared with NIR-BG2)	fluorescent intensity (FIG. 5A and FIG. 5C) ([2]; compared with NIR-BG2)	labeling efficiency (in gel fluorescence) [3]
CCC[N+]1=C(/C=C/C2=C3Oc4cc(OCc5ccc(O[C@@H]6OC(CO)[C@H](O)[C@H](O)C6O)cc5)c(COC(=O)NCC)cc4C=C3CCC2)C(C)(C)c2ccccc21 (stereo partly drawn) [NIR-BG3]	slightly higher nonspecific labeling of BSA	strong contrast	about 2 fold	higher background	overall higher fluorescence	much higher than NIR-BG2	significantly higher labeling efficiency
CCC[N+]1=C(/C=C/C2=C3Oc4cc(OCc5ccc(O[C@@H]6OC(CO)[C@H](O)[C@H](O)C6O)cc5)c(COC(=O)N5CCCCC5)cc4C=C3CCC2)C(C)(C)c2ccccc21 (stereo partly drawn) [NIR-BG4]	slightly higher nonspecific labeling of BSA	–	–	–	–	–	significantly higher labeling efficiency
